From US7956041B2, “Prophylactic and therapeutic agent of diabetes mellitus” (Ajinomoto Co., Inc., priority 2002, dated 2011)

Columns and labels:
[1] = system: Type 2 diabetes model Zucker diabetic fatty rats; experiment: Example V: insulin content in pancreas of Zucker diabetic fatty rats (ELISA); assay type: in vivo, rat; details: twice daily p.o., day 39, starved 18 h, inhibitor A 30 mg/kg and/or metformin 200 mg/kg, FIG. 5
Description: Type 2 diabetes model Zucker diabetic fatty rats (age 15 weeks) were divided into groups with matched blood glucose levels and body weights. Subsequently, the inhibitor A of renal glucose reabsorption at 30 mg/kg or metformin at 200 mg/kg was orally given twice daily. Further, a group to be on a combined use of the inhibitor A of renal glucose reabsorption (30 mg/kg) and metformin (200 mg/kg) was prepared. The agents were orally given twice daily at the same time period as in the case of the groups administered with a single one of these agents. Only a vehicle was orally given twice daily to the animals in a control group. On day 39 from the start of administration, the animals were starved for 18 hours. Then, pancreas was resected from the animals, for the assay of insulin in pancreas homogenates by ELISA, to compare the groups in terms of insulin content in pancreas.
Zucker diabetic fatty rat is a type 2 diabetic model animal, where the sustainment of hyperglycemic conditions induces a high concentration of glycated hemoglobin so that the aging of the model animal involves the decrease of the insulin content in pancreas.

[2] = system: glucose-loaded mice (KK mice); experiment: Example II: blood glucose time course after oral glucose loading in KK mice; assay type: in vivo, mouse; details: glucose 1 g/kg p.o., FIG. 3; for Blood glucose 30 minutes after glucose loading / Blood glucose 60 minutes after glucose loading / Blood glucose 2 hours after glucose loading and thereafter: metformin 200 mg/kg, inhibitor A 30 mg/kg p.o., vs control; for Pattern of glycemic suppression at elevated dose: metformin 300 mg/kg, inhibitor A 45 mg/kg
Description: KK mice (age of 25 weeks; male) fed with a commercially available high-calories feed for breeding (CMF; Oriental Yeast) were divided into groups with matched body weights. After starvation for 17 hours, glucose was orally given at 1 g/kg. Immediately thereafter, the inhibitor A of renal glucose reabsorption (30 mg/kg or 45 mg/kg) or metformin (200 mg/kg or 300 mg/kg) was orally given. Additionally, a group given with the inhibitor A of renal glucose reabsorption (30 mg/kg) and metformin (200 mg/kg) was prepared. A vehicle was orally given to a control group after glucose dosing.
Blood glucose level was assayed in a time course.

[3] = system: glucose-loaded rats (Wistar rats); experiment: Example I: blood glucose time course after oral glucose loading in rats; assay type: in vivo, rat; details: glucose 1 g/kg p.o.
Description: Wistar rats (age of 7 weeks; male) were divided into groups with matched body weights. After 17-hour starvation, glucose was orally given at 1 g/kg to the animals. Immediately after the administration, the inhibitor A of renal glucose reabsorption or the inhibitor B of renal glucose reabsorption (A at 30 mg/kg or 60 mg/kg; B at 30 mg/kg or 80 mg/kg) or glibenclamide (1 mg/kg or 2 mg/kg) or nateglinide (50 mg/kg or 80 mg/kg) was orally given. Additionally, a group on the combined use of both of an inhibitor of renal glucose reabsorption and a hypoglycemic agent was also prepared. A vehicle was orally given to a control group after glucose administration.
Blood glucose was measured in a time course.

[4] = system: Type 2 diabetic model GK rats; experiment: Example III: blood glucose on day 25 of once daily dosing in GK rats; assay type: in vivo, rat; details: once daily p.o., FIG. 4
Description: Type 2 diabetic model GK rats (age of 7 weeks; male) were divided into groups with matched blood glucose levels and body weights, for once daily oral administration of the inhibitor A of renal glucose reabsorption (30 mg/kg) or glibenclamide at 3 or 6 mg/kg. Further, a group given with a combination of the inhibitor A of renal glucose reabsorption at 30 mg/kg and glibenclamide at 3 mg/kg was prepared. These agents were orally given once daily at the same time period as in the group administered with a single one agent. Only a vehicle was given orally to a control group. On day 25 after the start of administration, blood glucose was assayed sequentially, to compare the groups in terms of the resulting blood glucose levels.

Male Wistar rats [5] = experiment: Test Example 1B: excretion action of urine sugar in rat; assay type: in vivo; details: oral administration, 24 hours
Description: Male Wistar rats aged 5 weeks (purchased from Charles River Japan, Inc.) were acclimatized in metabolic cages for one week, for use at this experiment. The test compounds suspended in olive oil were prepared into solutions to a dose of 5 ml per 1 kg rat body weight. After the rats were starved for 4 hours, the test compounds were orally given at 10, 30 and 100 mg/kg to the rats at 11 am. Immediately after dosing until 24 hours later, urine was collected. The volume of urine was measured. Then, urine glucose concentration was assayed by glucose oxidase method, to calculate the glucose excretion into urine per individual per day. As a positive control, 3-(5-benzo[b]furanyl)-2′-(6-o-methoxycarbonyl-β-D-glucopyranosyloxy)-6′-hydroxy-4′-methylpropiophenone [under a different name of 3-(benzo[b]furan-5-yl)-2′,6′-dihydroxy-4′-methylpropiophenone 2′-o-(6-o-methoxycarbonyl-β-D-glucopyranoside)] was used.

Male Wistar rats [6] = experiment: Test Example 2A: excretion action of urine sugar in rat; assay type: in vivo; details: urine collected 24 hours
Description: Male Wistar rats aged 5 weeks (purchased from Charles River Japan, Inc.) were acclimatized in metabolic cages for one week, for use at this experiment. The test compounds suspended in olive oil were dosed at 5 ml per 1 kg rat body weight.
After the rats were starved for 4 hours, the test compounds were orally given to the rats at 11 am. Immediately after dosing until 24 hours later, urine was collected. The volume of urine was measured. Then, urine sugar concentration was assayed by glucose oxidase method, to calculate the glucose excretion into urine per individual per day.

[7] = glibenclamide 1 mg/kg and/or inhibitor A 30 mg/kg p.o., vs vehicle, FIG. 1
[8] = glibenclamide 2 mg/kg, inhibitor A 60 mg/kg, FIG. 1
[9] = glibenclamide 3 mg/kg and/or inhibitor A 30 mg/kg
[10] = nateglinide 50 mg/kg and/or inhibitor B 30 mg/kg p.o., vs vehicle, FIG. 2

CCc1ccc(Cc2c(O[C@@H]3O[C@H](CO)[C@@H](O)[C@H](O)[C@H]3O)nn(C3CCC3)c2C(F)(F)F)cc1 [1′-cyclobutyl-4′-[(4-ethylphenyl)methyl]-5′-trifluoromethyl-1H-pyrazole-3′-o-β-D-glucopyranoside]
Insulin content in pancreas [1]: no difference was observed in insulin content in spleen
Blood glucose 30 minutes after glucose loading [2]: could suppress hyperglycemia 30 minutes and 60 minutes after glucose loading
Blood glucose 60 minutes after glucose loading [2]: could suppress hyperglycemia 30 minutes and 60 minutes after glucose loading
Blood glucose 2 hours after glucose loading and thereafter [2]: could not suppress the blood glucose level 2 hours later and thereafter
Pattern of glycemic suppression at elevated dose [2]: the pattern of glycemic suppression did not change even when the dose was elevated
Blood glucose immediately after glucose loading (30 minutes) [3, 7]: suppressed hyperglycemia observed in the vehicle group immediately after glucose loading
Pattern of glycemic suppression at increased dose [3, 8]: The pattern of glycemic suppression did not change even when the dose was elevated
Blood glucose level on day 25 [4, 9]: significantly lowered, compared with the group given the vehicle

CCc1ccc(Cc2c(OC3OC(COC(=O)OC)C(O)C(O)C3O)nn(C(CF)CF)c2C(F)(F)F)cc1 [Production Example 2B, 4′-[(4′-ethylphenyl)methyl]-1′-(1′,3′-difluoro-2′-propyl)-5′-(trifluoromethyl)-1H-pyrazole-3′-o-(6-o-methoxycarbonyl-β-D-glucopyranoside)]
Excreted urine sugar (Male Wistar rats [5]; Dose 10 mg/kg): 136 mg
Excreted urine sugar (Male Wistar rats [5]; Dose 30 mg/kg): 272 mg
Excreted urine sugar (Male Wistar rats [5]; Dose 100 mg/kg): 524 mg

CCc1ccc(Cc2c(O[C@@H]3O[C@H](COC(=O)OC)[C@@H](O)[C@H](O)[C@H]3O)nn(Cc3ccccc3)c2C(F)(F)F)cc1 [Production Example 4-A, 4′-[(4′-ethylphenyl)methyl]-1′-benzyl-5′-trifluoromethyl-1H-pyrazole-3′-o-(6-carbomethoxy)-β-D-glucopyranoside]
Excreted urine sugar (Male Wistar rats [6]; Dose 100 mg/kg p.o.): 27 mg

CCc1ccc(Cc2c(O[C@@H]3O[C@H](COC(=O)OC)[C@@H](O)[C@H](O)[C@H]3O)nn(Cc3ccc(OC)cc3)c2C(F)(F)F)cc1 [Production Example 6-A, 4′-[(4′-ethylphenyl)methyl]-1′-[(4′-methoxyphenyl)methyl]-5′-trifluoromethyl-1H-pyrazole-3′-o-(6-carbomethoxy)-β-D-glucopyranoside]
Excreted urine sugar (Male Wistar rats [6]; Dose 100 mg/kg p.o.): 59 mg

CCc1ccc(Cc2c(O[C@@H]3O[C@H](COC(=O)OC)[C@@H](O)[C@H](O)[C@H]3O)nn(-c3ccccc3)c2C(F)(F)F)cc1 [Production Example 8-A, 4′-[(4′-ethylphenyl)methyl]-1′-phenyl-5′-trifluoromethyl-1H-pyrazole-3′-o-(6-carbomethoxy)-β-D-glucopyranoside]
Excreted urine sugar (Male Wistar rats [6]; Dose 100 mg/kg p.o.): 4.1 mg

COC(=O)OC[C@H]1O[C@@H](Oc2nn(C(C)C)c(C)c2Cc2ccc(OC)c(F)c2)[C@H](O)[C@@H](O)[C@@H]1O [Production Example 10-A, 4′-[(3′-fluoro-4′-methoxyphenyl)methyl]-1′-isopropyl-5′-methyl-1H-pyrazole-3′-o-(6-carbomethoxy)-β-D-glucopyranoside]
Excreted urine sugar (Male Wistar rats [6]; Dose 100 mg/kg p.o.): 734 mg

COC(=O)OC[C@H]1O[C@@H](Oc2nn(C(C)C)c(C)c2Cc2ccc(C)c(F)c2)[C@H](O)[C@@H](O)[C@@H]1O [Production Example 14-A, 4′-[(3′-fluoro-4′-methylphenyl)methyl]-1′-isopropyl-5′-methyl-1H-pyrazole-3′-o-(6-carbomethoxy)-β-D-glucopyranoside]
Excreted urine sugar (Male Wistar rats [6]; Dose 100 mg/kg p.o.): 918 mg

CCc1ccc(Cc2c(O[C@@H]3O[C@H](COC(=O)OC)[C@@H](O)[C@H](O)[C@H]3O)nn(C(C)C)c2C)cc1 [Production Example 16-A, 4′-[(4-ethylphenyl)methyl]-1′-isopropyl-5′-methyl-1H-pyrazole-3′-o-(6-carbomethoxy)-β-D-glucopyranoside]
Excreted urine sugar (Male Wistar rats [6]; Dose 3 mg/kg p.o.): 28 mg
Excreted urine sugar (Male Wistar rats [6]; Dose 10 mg/kg p.o.): 263 mg
Excreted urine sugar (Male Wistar rats [6]; Dose 30 mg/kg p.o.): 294 mg
Excreted urine sugar (Male Wistar rats [6]; Dose 100 mg/kg p.o.): 598 mg

Cc1[nH]nc(O[C@@H]2O[C@H](CO)[C@@H](O)[C@H](O)[C@H]2O)c1Cc1ccc(OC(C)C)cc1 [Reference Production Example 1, 4-[(4-isopropoxyphenyl)methyl]-5-methyl-1H-pyrazole-3-o-β-D-glucopyranoside, reference compound]
Excreted urine sugar (Male Wistar rats [6]; Dose 100 mg/kg p.o.): 14 mg

COc1ccc(Cl)cc1C(=O)NCCc1ccc(S(=O)(=O)NC(=O)NC2CCCCC2)cc1 [glibenclamide]
Blood glucose 120 minutes after glucose loading and thereafter [3, 7]: lowered blood glucose 120 minutes after glucose loading and thereafter
Blood glucose immediately after glucose loading (30 minutes) [3, 7]: did not suppress hyperglycemia immediately after glucose loading
Pattern of glycemic suppression at increased dose [3, 8]: did not change changed the pattern of glycemic suppression
Blood glucose level on day 25 [4, 9]: no difference was observed from the vehicle-dosed group in terms of the blood glucose levels
Blood glucose level on day 25 ([4]; glibenclamide 6 mg/kg): did not produce any difference in blood glucose level from the vehicle-dosed group

CN(C)C(=N)N=C(N)N [metformin, reference compound]
Insulin content in pancreas [1]: no difference was observed in insulin content in spleen
Blood glucose 30 minutes after glucose loading [2]: did not suppress the increase of blood glucose in the mice 30 minutes after glucose loading
Blood glucose 60 minutes after glucose loading [2]: suppressed the increase 60 minutes later and thereafter
Blood glucose 2 hours after glucose loading and thereafter [2]: suppressed the increase 60 minutes later and thereafter
Pattern of glycemic suppression at elevated dose [2]: The pattern of glycemic suppression did not change even when the dose was elevated

CC(C)[C@H]1CC[C@H](C(=O)N[C@H](Cc2ccccc2)C(=O)O)CC1 [nateglinide]
Blood glucose 30 minutes after glucose loading [3, 10]: more highly suppressed hyperglycemia immediately after glucose loading (30 minutes and 60 minutes)
Blood glucose 60 minutes after glucose loading [3, 10]: more highly suppressed hyperglycemia immediately after glucose loading (30 minutes and 60 minutes)
Blood glucose 120 minutes after glucose loading and thereafter ([3]; nateglinide 50 mg/kg p.o., vs vehicle, FIG. 2): did not lower the blood glucose level 120 minutes after glucose loading and thereafter
Pattern of glycemic suppression at increased dose ([3]; nateglinide 80 mg/kg, inhibitor B 80 mg/kg, FIG. 2): the pattern of glycemic suppression did not change even by the elevation of the dose
